What was measured:
[1] = molecular target: T1, strychnine insensitive glycine receptor which is located on the NMDA receptor complex (Rattus norvegicus, UniProt P35439); test: glycine binding assay ([3H]-Gly); details: for IC50: [3H]-glycine binding; for inhibition at 10 µM: read-out: [3H]-Gly, % Inh. at 10 μM
T1 construct: from tissue
Procedure: Specifically, the compounds of the present invention have activity as antagonists at the strychnine insensitive glycine receptor which is located on the NMDA receptor complex. As such, the compounds of the present invention are NMDA receptor antagonists. Also, the compounds of the present invention have activity as AMPA and kainate receptor antagonists.
The glycine binding assay is performed essentially as described by W. Frost White, et al, Journal of Neurochemistry 1989;53(2):503-12.

AMPA receptor = test: AMPA binding assay ([3H]-AMPA); details: [3H]-AMPA binding; unit inferred
Description: The AMPA binding assay may also be performed to provide an activity profile for the compounds of the present invention.

cortical neuronal cells = test: glutamate-induced lactate dehydrogenase (LDH) efflux assay; type: cell-based; details: glutamate exposure 5 minutes; LDH released into the culture medium 1 day after exposure
Procedure: The glutamate-induced lactate dehydrogenase (LDH) efflux assay is also used to measure the activity of the compounds of the present invention. Procedures for evaluating neurotoxicity in cortical neuronal cells by measuring efflux of LDH are carried out similarly as described by J. Y. Koh and D. W. Choi, J. Neurosci. Methods 1987;20:83-90. Only mature ([…] in vitro) cortical cultures were selected for study. Cells were exposed for 5 minutes to a glutamate exposure solution. Compounds tested were added to the glutamate exposure medium. In all experiments the glutamate exposure was removed and fresh buffer was added. Overall neuronal injury was quantitatively assessed by measurement of LDH released into the culture medium 1 day after glutamate exposure (see J. G. Klingman, D. M. Hartley, D. W. Choi, J. Neurosci. Methods 1989;31:47-51) using a 96-well plate reader.

Row | IC50 [1] [µM] | IC50 (AMPA receptor) [µM] | IC50 (cortical neuronal cells) [µM] | inhibition at 10 µM [1] [%] | SMILES
1 | 0.18 | 203 | 10.2 | – | O=C(O)/C=C/c1c(C(=O)O)[nH]c2cc(Cl)cc(Cl)c12
2 | 0.068 | 113 | 7.8 | – | O=C(CCc1c(C(=O)O)[nH]c2cc(Cl)cc(Cl)c12)NS(=O)(=O)c1ccccc1
3 | 0.543 | 80 | 21.5 | – | CS(=O)(=O)NC(=O)CCc1c(C(=O)O)[nH]c2cc(Cl)cc(Cl)c12
4 | – | 108 | – | 89 | O=C(CCCc1c(C(=O)O)[nH]c2cc(Cl)cc(Cl)c12)NS(=O)(=O)c1ccccc1
5 | 0.079 | 150 | 6 | – | [N-]=[N+]=Nc1cccc(S(=O)(=O)NC(=O)CCc2c(C(=O)O)[nH]c3cc(Cl)cc(Cl)c23)c1
6 | – | 122 | – | 87 | O=C(/C=C/c1c(C(=O)O)[nH]c2cc(Cl)cc(Cl)c12)NS(=O)(=O)c1ccccc1
7 | – | 213 | – | 84 | O=C(/C=C/c1c(C(=O)O)[nH]c2cc(Cl)cc(Cl)c12)NCc1ccccc1

From patent US5284862A, “Derivatives of 2-carboxyindoles having pharmaceutical activity” (Warner-Lambert Company, priority 1992, dated 1994)
